The target of the experiment is T1, Raf and/or Mek kinase (human c-Raf, GST-MEK1) (Homo sapiens, UniProt P04049+Q02750).
T1 construct: Sf9 insect cell lysate containing full length 6his-tagged recombinant human c-Raf; 6His; host or cells: Sf9 insect cells (c-Raf, used as lysate); E. coli (MEK1-GST, GST-MAPK)
As to the kind of experiment: Raf/Mek kinase cascade assay. Format: biochemical. The settings on record: c-Raf dependent activation of GST-MEK and GST-MAPK, phospho-MAPK ELISA; (a)/(b)/(c) = average of two/three/four runs. An outline of the steps:
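Cascade run with c-Raf (0.4 U) activating non-active GST-MEK1 and GST-p42 MAPK in MOPS pH 7.2 buffer with ATP/MgCl2, 60 min at 30 °C. Phospho-MAPK captured on anti-GST plates and read with anti-phospho-MAPK and europium-conjugated secondary antibody. Single-point % inhibition at […]; IC50 over 10 µM–1 nM half-log dilutions.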

The results in this text go back to patent publication US7767671B2, “3-Quinolinecarbonitrile protein kinase inhibitors” (Wyeth, priority 2004, dated 2010).

The structures appear in SMILES notation.

T1 sequence (P04049 whole entry): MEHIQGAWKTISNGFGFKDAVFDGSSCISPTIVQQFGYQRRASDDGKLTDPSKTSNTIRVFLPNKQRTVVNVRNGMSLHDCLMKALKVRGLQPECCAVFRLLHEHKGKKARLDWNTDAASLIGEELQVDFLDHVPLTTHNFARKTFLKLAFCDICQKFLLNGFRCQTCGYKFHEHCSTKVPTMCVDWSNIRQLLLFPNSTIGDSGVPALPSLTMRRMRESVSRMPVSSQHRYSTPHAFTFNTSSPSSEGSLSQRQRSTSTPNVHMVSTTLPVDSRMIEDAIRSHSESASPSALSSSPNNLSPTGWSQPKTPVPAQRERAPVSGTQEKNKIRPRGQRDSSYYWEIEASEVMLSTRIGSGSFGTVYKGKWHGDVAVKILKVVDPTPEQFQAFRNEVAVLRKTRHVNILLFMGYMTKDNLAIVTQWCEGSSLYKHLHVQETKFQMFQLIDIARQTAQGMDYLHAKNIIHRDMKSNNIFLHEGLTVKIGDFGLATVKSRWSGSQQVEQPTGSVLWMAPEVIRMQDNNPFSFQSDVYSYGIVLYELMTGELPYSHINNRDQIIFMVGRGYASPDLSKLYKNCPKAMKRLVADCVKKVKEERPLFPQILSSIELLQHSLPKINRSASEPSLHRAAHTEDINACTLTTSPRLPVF
T1 sequence (Q02750 whole entry): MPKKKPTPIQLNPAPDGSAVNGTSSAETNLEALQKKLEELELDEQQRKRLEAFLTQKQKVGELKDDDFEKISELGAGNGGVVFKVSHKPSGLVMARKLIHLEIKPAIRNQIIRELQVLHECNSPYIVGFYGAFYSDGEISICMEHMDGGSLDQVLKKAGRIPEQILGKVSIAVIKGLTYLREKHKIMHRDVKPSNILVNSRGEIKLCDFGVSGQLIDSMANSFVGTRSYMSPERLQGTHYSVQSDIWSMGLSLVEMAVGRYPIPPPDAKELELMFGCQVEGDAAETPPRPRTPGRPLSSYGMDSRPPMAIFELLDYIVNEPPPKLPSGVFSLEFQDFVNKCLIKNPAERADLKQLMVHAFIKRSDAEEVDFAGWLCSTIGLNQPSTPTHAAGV

The compound `COc1cc2c(Nc3ccc(Oc4ccccc4)cc3)c(C#N)cnc2cc1OCCN1CCC(N2CCCCC2)CC1` [Example 32, 7-(2-[1,4′]Bipiperidinyl-1′-yl-ethoxy)-6-methoxy-4-(4-phenoxy-phenylamino)-quinoline-3-carbonitrile] yielded an IC50 of 20 nM.

As a reminder, the IC50 is the midpoint of a concentration-inhibition curve.
